Patent US6313111A, “Substituted 6H-1,3,4-thiadiazine-2-amines, the use thereof as anaesthetising, cardiovascular and hypometabolic agents, and pharmaceutical composition containing them” (priority 1998, dated 2001)
Where “and” joins values, the source holds several entries; their conditions need not be identical. Equal values may be shown once. Where a name gives a salt, the structure may show the parent alone.

How the values were obtained:
[1] = rate of oxygen consumption of mice in closed unit with optic-acoustic gas analyser MN 5130; type: in vivo, mice of the BALB line; details: relative to starting content
Procedure: In all cases tests were carried out on mice of the BALB line of 3-4 month age. […] In the case of water-soluble compounds, aqueous solutions of the test compounds were injected intraperitoneally (i.p.), while water-insoluble compounds were introduced orally (p.o.).
Rectal temperature changes (absolute magnitues in ° C.) were measured using a medicinal electrothermometer TREM-1 (Table 1). The rate of oxygen consumption was monitored by measuring concentration of oxygen in a closed testing unit with optic-acoustic gas analyser MN 5130. The data on oxygen consumption are given in percents relative to the starting content of oxygen taken as 100%. (Table 2).

[2] = behaviour of mice after injection of compound 1; type: in vivo, mice of the BALB line; details: for behaviour of mice: 140 mg/kg
Procedure: In all cases tests were carried out on mice of the BALB line of 3-4 month age. Non-toxic doses of compounds under test varying from 60 to 400 mg/kg were used in all experiments. In the case of water-soluble compounds, aqueous solutions of the test compounds were injected intraperitoneally (i.p.), while water-insoluble compounds were introduced orally (p.o.).
The behaviour of mice to injection of compound 1 at 140 mg/kg dosage is as follows: […]

## c1ccc(C2=NN=C(N3CCOCC3)SC2)cc1 [Compound 1, 2-Morpholino-5-phenyl-6H-1,3,4-thiadiazine, hydrobromide]
[1]; 10.0 mg/kg i.p., 0 min
  consumption of oxygen (O2): 100 ± 6.9%
[1]; 10.0 mg/kg i.p., 10 min
  consumption of oxygen (O2): 94.0 ± 5.5%
[1]; 10.0 mg/kg i.p., 20 min
  consumption of oxygen (O2): 87.3 ± 9.9%
[1]; 10.0 mg/kg i.p., 30 min
  consumption of oxygen (O2): 78.2%
[1]; 10.0 mg/kg i.p., 60 min
  consumption of oxygen (O2): 83.3 ± 18.1%
[1]; 10.0 mg/kg i.p., 90 min
  consumption of oxygen (O2): 75.9 ± 19.3%
[1]; 10.0 mg/kg i.p., 120 min
  consumption of oxygen (O2): 95.6 ± 10.8%
[1]; 10.0 mg/kg i.p., 180 min
  consumption of oxygen (O2): 80.6 ± 9.9%
[1]; 10.0 mg/kg i.p., 240 min
  consumption of oxygen (O2): 92.6 ± 3.9%
[1]; 10.0 mg/kg i.p., 300 min
  consumption of oxygen (O2): 109.7 ± 8.8%
[1]; 35.0 mg/kg i.p., 0 min
  consumption of oxygen (O2): 100 ± 7.4%
[1]; 35.0 mg/kg i.p., 10 min
  consumption of oxygen (O2): 86.3 ± 13.1%
[1]; 35.0 mg/kg i.p., 20 min
  consumption of oxygen (O2): 73.6 ± 2.6%
[1]; 35.0 mg/kg i.p., 30 min
  consumption of oxygen (O2): 68.4%
[1]; 35.0 mg/kg i.p., 60 min
  consumption of oxygen (O2): 70.4 ± 7.1%
[1]; 35.0 mg/kg i.p., 90 min
  consumption of oxygen (O2): 72.1 ± 10.4%
[1]; 35.0 mg/kg i.p., 120 min
  consumption of oxygen (O2): 68.4 ± 11.2%
[1]; 35.0 mg/kg i.p., 180 min
  consumption of oxygen (O2): 78.4 ± 9.3%
[1]; 35.0 mg/kg i.p., 240 min
  consumption of oxygen (O2): 97.4 ± 5.6%
[1]; 35.0 mg/kg i.p., 300 min
  consumption of oxygen (O2): 85.1 ± 3.8%
[1]; 140.0 mg/kg i.p., 0 min
  consumption of oxygen (O2): 100 ± 21.7%
[1]; 140.0 mg/kg i.p., 10 min
  consumption of oxygen (O2): 26.3 ± 6.8%
[1]; 140.0 mg/kg i.p., 20 min
  consumption of oxygen (O2): 46.8 ± 4.7%
[1]; 140.0 mg/kg i.p., 30 min
  consumption of oxygen (O2): 32.2%
[1]; 140.0 mg/kg i.p., 60 min
  consumption of oxygen (O2): 49.3 ± 9.8%
[1]; 140.0 mg/kg i.p., 90 min
  consumption of oxygen (O2): 43.6 ± 18.6%
[1]; 140.0 mg/kg i.p., 120 min
  consumption of oxygen (O2): 49.3 ± 15.4%
[1]; 140.0 mg/kg i.p., 180 min
  consumption of oxygen (O2): 78.9 ± 10.6%
[1]; 140.0 mg/kg i.p., 240 min
  consumption of oxygen (O2): 88.8 ± 9.8%
[1]; 140.0 mg/kg i.p., 300 min
  consumption of oxygen (O2): 105.3 ± 20.5%
[1]; 190 mg/kg (1/2 LD16) i.p., 5 min
  consumption of oxygen (O2): 43%
[1]; 190 mg/kg (1/2 LD16) i.p., 15 min
  consumption of oxygen (O2): 71.7%
[1]; 190.0 mg/kg i.p., 0 min, hydrobromide
  consumption of oxygen (O2): 100% and 100 ± 27.8%
[1]; 190.0 mg/kg i.p., 10 min
  consumption of oxygen (O2): 26.3 ± 9.8%
[1]; 190.0 mg/kg i.p., 20 min
  consumption of oxygen (O2): 71.7 ± 4.1%
[1]; 190.0 mg/kg i.p., 30 min
  consumption of oxygen (O2): 49.2%
[1]; 190.0 mg/kg i.p., 60 min, hydrobromide
  consumption of oxygen (O2): 29.5% and 29.5 ± 15.0%
[1]; 190.0 mg/kg i.p., 90 min, hydrobromide
  consumption of oxygen (O2): 47.5% and 47.5 ± 6.8%
[1]; 190.0 mg/kg i.p., 120 min, hydrobromide
  consumption of oxygen (O2): 36.9% and 36.9 ± 22.8%
[1]; 190.0 mg/kg i.p., 180 min, hydrobromide
  consumption of oxygen (O2): 55.3% and 55.3 ± 9.1%
[1]; 190.0 mg/kg i.p., 240 min, hydrobromide
  consumption of oxygen (O2): 99.6% and 99.6 ± 11.2%
[1]; 190.0 mg/kg i.p., 300 min, hydrobromide
  consumption of oxygen (O2): 151.6% and 151.6 ± 20.7%
[1]; 279.0 mg/kg i.p., 0 min
  consumption of oxygen (O2): 100 ± 5.2%
[1]; 279.0 mg/kg i.p., 10 min
  consumption of oxygen (O2): 32.6 ± 2.2%
[1]; 279.0 mg/kg i.p., 20 min
  consumption of oxygen (O2): 26.7 ± 2.2%
[1]; 279.0 mg/kg i.p., 30 min
  consumption of oxygen (O2): 20.7%
[1]; 279.0 mg/kg i.p., 60 min
  consumption of oxygen (O2): 9.3 ± 5.1%
[1]; 279.0 mg/kg i.p., 90 min
  consumption of oxygen (O2): 10.9 ± 5.5%
[1]; 279.0 mg/kg i.p., 120 min
  consumption of oxygen (O2): 9.3 ± 5.9%
[1]; 279.0 mg/kg i.p., 180 min
  consumption of oxygen (O2): 9.3 ± 4.0%
[1]; 279.0 mg/kg i.p., 240 min
  consumption of oxygen (O2): 13.0 ± 8.7%
[1]; 279.0 mg/kg i.p., 300 min
  consumption of oxygen (O2): 10.9 ± 1.0%
[1]; 365.0 mg/kg i.p., 0 min
  consumption of oxygen (O2): 100 ± 4.7%
[1]; 365.0 mg/kg i.p., 10 min
  consumption of oxygen (O2): 15.2 ± 3.1%
[1]; 365.0 mg/kg i.p., 20 min
  consumption of oxygen (O2): 15.8 ± 5.0%
[1]; 365.0 mg/kg i.p., 30 min
  consumption of oxygen (O2): 13.6%
[1]; 365.0 mg/kg i.p., 60 min
  consumption of oxygen (O2): 13.3 ± 3.7%
[1]; 365.0 mg/kg i.p., 90 min
  consumption of oxygen (O2): 13.1 ± 2.0%
[1]; 365.0 mg/kg i.p., 120 min
  consumption of oxygen (O2): 17.0 ± 3.4%
[1]; 365.0 mg/kg i.p., 180 min
  consumption of oxygen (O2): 11.2 ± 3.4%
[1]; 365.0 mg/kg i.p., 240 min
  consumption of oxygen (O2): 8.2 ± 2.0%
[1]; dose 36.5 mg/kg (1.06 mM/kg) i.p., 300 min
  consumption of oxygen (O2): 18.4 ± 2.0%
[2]; 15-180 minutes
  behaviour of mice: akinesia, mio-relaxation, lack of reflexes
[2]; 180-360 minutes
  behaviour of mice: restoration of motor activity
[2]; 5 minutes
  behaviour of mice: decrease in motor activity, suppression of breathing
[2]; non-toxic dose levels
  tremor or convulsions: not accompanied by tremor or convulsions
